Source: patent US12378210B2, “Pharmaceutical composition comprising tizoxanide and pharmaceutical use thereof” (BEIJING JUNKE HUAYUAN MED TECH CO., LTD., priority 2020, dated 2025)
“And” between values parts separate entries of the source, which are not always exact repeats. Identical values can stand only once. Counter-ions that a name gives are not always drawn. Like-named read-outs stand apart in the source and are kept apart here.

Tests used:
[1] = system: influenza A virus mouse lung adaptive strain A/PR/8/34; format: in vivo, Kunming mice
DHBV = test: Evaluation of in vivo anti-hepatitis B virus effect (serum DHBV DNA, dot-blot hybridization); set-up: species or system sheld ducks (Tadorna); conditions: intragastric once daily
Description: The sheld ducks (Tadorna) with vertical transmission infection and positive DHBV DNA were randomly grouped, 8 sheld ducks each group. […] Blood was collected intravenously prior to administration (T0) and 7 days (T7), 14 days (T14), 21 days (T21) and 28 days ([…]) after administration, and the serum was separated and frozen at -70° C. for determination. Determination of DHBV DNA content in serum by using dot-blot molecular hybridization was as follows: the duck serum described above was taken, spots were simultaneously formed on detection films for each batch, the change of the DHBV DNA level in the duck serum was determined, the DHBV DNA probe was labeled by ^32P according to the method of the instruction of the nick translation kit, and a duck serum dot-blot experiment was performed.

[2] = set-up: species or system SD rats; conditions: male, SD, rat, in vivo, po
Description: 34.75 mg of nitazoxanide was added to 10 mL of 0.5% sodium carboxymethylcellulose solution, and the mixture was mixing homogeneously for later use; 41.67 mg of tizoxanide choline salt of formula (I) prepared in Example 2 was added to 10 mL of 0.5% sodium carboxymethylcellulose solution, and the mixture was mixed homogeneously for later use; 30 mg of tizoxanide was added to 5 mL of 0.5% sodium carboxymethylcellulose solution, followed by addition of 40% aqueous choline hydroxide solution, and the mixture was mixed homogeneously, and then added with 0.5% sodium carboxymethyl cellulose solution to a final volume of 10 mL to obtain a mixture of tizoxanide and choline for later use. […] Provided were male SD rats weighing 180 g to 220 g, 3 rats each group; all animals were fasted for 12 h prior to administration. The rats were separately administered intragastrically with the solution of the nitazoxanide, the solution of the tizoxanide choline salt of formula (I) or the mixture of tizoxanide and choline described above at a dose of 10 mL/kg each. […] The collected blood was added with sodium heparin for anticoagulation, followed by centrifugation to separate plasma, and the plasma was storing at −80° C. for determination. The content of tizoxanide in plasma was determined by LC-MS/MS (instrument: LC-MS/MS-19, TQ5500 Triple quad); internal Standard (IS) was tolbutamide; mass spectrum conditions: an electrospray ion source and a negative ion multiple reaction detection (Tizoxanide: […] ACQUITY UPLC CORTECS T3, 2.7 μm (2.1×100 mm); column temperature was 40° C.; flow rate was 0.6 mL/min. The pharmacokinetic parameters were calculated by utilizing WinNonlin according to the plasma concentration data at different time points. The results are shown in Table 1: […]

[3] = in vivo, po; cited from earlier work
[4] = 200 mg/kg active ingredient basis, T0 (prior to administration)
[5] = 200 mg/kg active ingredient basis, T7 (7 days)
[6] = 200 mg/kg active ingredient basis, T14 (14 days)
[7] = 200 mg/kg active ingredient basis, T21 (21 days)
[8] = 200 mg/kg active ingredient basis, T28 (28 days)

SMILES | Survival rates ([1]; mouse, in vivo) | OD490 value (DHBV; 100 mg/kg active ingredient basis, T0 (prior to administration)) | OD490 value (DHBV; 100 mg/kg active ingredient basis, T7 (7 days)) | OD490 value (DHBV; 100 mg/kg active ingredient basis, T14 (14 days)) | OD490 value (DHBV; 100 mg/kg active ingredient basis, T21 (21 days)) | OD490 value (DHBV; 100 mg/kg active ingredient basis, T28 (28 days)) | OD490 value (DHBV; [4]) | OD490 value (DHBV; [5]) | OD490 value (DHBV; [6]) | OD490 value (DHBV; [7]) | OD490 value (DHBV; [8]) | AUC(0-t) [2] [ng·h/mL] | AUC(0-∞) [2] [ng·h/mL] | Cmax [2] [ng/mL] | T1/2 [2] [h] | Tmax [2] [h] | original form of nitazoxanide in blood [3] | Survival rates ([1]; 50 mg/kg active ingredient basis, intragastric 2 times daily for 5 days, […], observed 14 days) | Survival rates ([1]; 100 mg/kg active ingredient basis, intragastric 2 times daily for 5 days, […], observed 14 days)
O=C(Nc1ncc([N+](=O)[O-])s1)c1ccccc1O [Tizoxanide choline salt of formula (I), tizoxanide choline salt] | 9/10 and 3/10 | 1.47 ± 0.20 | 0.43 ± 0.18**ΔΔ | 0.39 ± 0.34**ΔΔ | 0.34 ± 0.25**ΔΔ | 0.53 ± 0.37**ΔΔ | 0.96 ± 0.47 | 0.15 ± 0.08**ΔΔ | 0.10 ± 0.05**ΔΔ | 0.07 ± 0.04**ΔΔ | 0.27 ± 0.17**ΔΔ | 2070.01 | 2280.30 | 837.16 | 2.53 | 0.25 | – | – | –
CC(=O)Oc1ccccc1C(=O)Nc1ncc([N+](=O)[O-])s1 [Nitazoxanide, o-N-(5-nitrothiazol-2-yl)carbamoyl-phenol-acetate, reference compound] | – | – | – | – | – | – | 1.67 ± 0.11 | 1.37 ± 0.27 | 1.19 ± 0.51 | 0.72 ± 0.38**ΔΔ | 0.72 ± 0.48**ΔΔ | 1325.50 | 1327.91 | 380.55 | 0.65 | 2.00 | undetectable | 2/10 | 7/10
